Measurements from patent publication US20240341337A1, “METHOD FOR CREATING MASKING COMPOSITIONS” (GIVAUDAN SA, priority 2021, published 2024).

Assays:
[1] = Antagonist screening for pea protein off-notes on VAS aroma blending device, off-note Ex. A; parameters: key to Off-note Ex. A masking effect: +++ being most effective; ++ in the middle; + some effect; +/− being in between; − being no effect; conditions: off-note channel 1, 0.01% in MCT, flow 300; antagonist channel conc. as in Table 2 c2
Procedure: (§1) In one embodiment, the screening step is carried out using the above described aroma blending device as follows: each off-note molecule(s) identified from a target non-animal derived protein may be loaded into its own individual cartridge or channel (for example, propyl-iso-2-methoxy-3-pyrazine may be loaded into cartridge/channel #1, and isobutyl-3-methoxy-2-pyrazine may be loaded into cartridge/channel #2, etc.); next, the target non-animal protein is diluted as will be discussed below and may be loaded into its own individual cartridge/channel, for example, cartridge/channel #6 to act as the control or base; next, each antagonist candidate molecule that has been identified may be loaded into its own individual cartridge/channel (for example, molasses distillate may be loaded into cartridge/channel #7 and bisabolene may be loaded into cartridge/channel #8, etc). Next, the gas flow on the off-note molecule containing cartridge/channel is first opened, followed by one of the antagonist candidate molecule containing cartridges/channels. The intensity of the flow of the antagonist candidate molecule containing cartridge/channel is adjusted until the off-note is canceled or neutralized by the antagonist candidate molecule, i.e neutralization concentration. This process is repeated for each antagonist candidate molecule containing cartridges/channels so that all of the potential antagonist candidate molecules are screened.
(§2) Selection and screening of the antagonist molecules was performed using the VAS aroma blending device. As described above, each off-note molecule from Table 1 was loaded into its own individual cartridge or channel as shown in Table 2 (#'s 1-5). Each off-note molecule was diluted with medium-chain triglyceride (“MCT”) prior to loading into the cartridge/channel. Next, the target non-animal protein was diluted at 2% plus 0.1% xanthan gum in water with a small amount of antifoam agent (0.01%) and was placed into a cartridge/channel (#21). Each antagonist candidate molecule was then diluted with MCT in a pre-determined concentration and was loaded into a cartridge/channel as shown in Table 2 (#'s 6-20). Next, the gas flow (between 0 to 500 ml/min) on the off-note molecule containing cartridge/channel is first opened, followed by one of the antagonist candidate molecule containing cartridges/channels. The intensity of the flow of the antagonist candidate molecule containing cartridge/channel is adjusted until the off-note is canceled or neutralized by the antagonist candidate molecule, i.e neutralization concentration. This process is repeated for each antagonist candidate molecule containing cartridges/channels so that all of the potential antagonist candidate molecules are screened.
(§3) The numeric number in the column refers the flow rate on VAS aroma blending device.

[2] = Antagonist screening for pea protein off-notes on VAS aroma blending device, off-note Ex. E; parameters: key to Off-note Ex. E masking effect: +++ being most effective; ++ in the middle; + some effect; +/− being in between; − being no effect; conditions: off-note channel 5, 1.0% in MCT, flow 150; antagonist channel conc. as in Table 2 c2
Procedure: as §1, §2, §3

[3] = Antagonist screening for pea protein off-notes on VAS aroma blending device, off-note Ex. B; parameters: key to Off-note Ex. B masking effect: +++ being most effective; ++ in the middle; + some effect; +/− being in between; − being no effect; conditions: off-note channel 2, 0.001% in MCT, flow 150; antagonist channel conc. as in Table 2 c2
Procedure: as §1, §2, §3

[4] = Antagonist screening for pea protein off-notes on VAS aroma blending device, off-note Ex. D; parameters: key to Off-note Ex. D masking effect: +++ being most effective; ++ in the middle; + some effect; +/− being in between; − being no effect; conditions: off-note channel 4, 0.10% in MCT, flow 15; antagonist channel conc. as in Table 2 c2
Procedure: as §1, §2, §3

[5] = Antagonist screening for pea protein off-notes on VAS aroma blending device, off-note Ex. C; parameters: key to Off-note Ex. C masking effect: +++ being most effective; ++ in the middle; + some effect; +/− being in between; − being no effect; conditions: off-note channel 3, 0.01% in MCT, flow 185; antagonist channel conc. as in Table 2 c2
Procedure: as §1, §2, §3

Compound	Off-note Ex. A Flow Rate (antagonist channel) [1]	Off-note Ex. A masking effect [1]	Off-note Ex. E Flow Rate (antagonist channel) [2]	Off-note Ex. E masking effect [2]	Off-note Ex. B masking effect [3]	Off-note Ex. D masking effect [4]	Off-note Ex. C Flow Rate (antagonist channel) [5]	Off-note Ex. C masking effect [5]	Off-note Ex. B Flow Rate (antagonist channel) [3]	Off-note Ex. D Flow Rate (antagonist channel) [4]
C=CCOC(=O)CCC1CCCCC1 [Ally1 Cyclohexyl Proprionate]	165 mL/min	+/−	175 mL/min	++	−	−	100 mL/min	+++		
CCOC(=O)CCC(=O)OCC [Diethyl Succinate]	250 mL/min	++			++	++	200 mL/min	+/−	300 mL/min	200 mL/min
CCCCCCCCCCCCCCCC(=O)OCC [Ethyl Palmitate]		−	300 mL/min	+		−	35 mL/min	++	100 mL/min	
CCOC(=O)C(C)O (stereo not drawn) [Ethyl lactate]	90 mL/min	+++			+++	++	200 mL/min	++	100 mL/min	200 mL/min
Bisabolene		−	150 mL/min	+	−	−		−		
Caryophyllene	100 mL/min	+++	200 to 225 mL/min	+	+	++		−		150 mL/min
